Data set [1] relates to Ba/F3 ETV6-NTRK3-G623R cell line. Briefly: Cell experiment, CellTiter-Glo viability, Ba/F3 ETV6-NTRK3-G623R. Format: cell-based. The conditions noted are these: Mus musculus, BaF3, 72 hours, CTG. Here is the method:
(§1) Cell culture and seeding: (1) cells in logarithmic growth phase were harvested and counted using a […]. The cell viability was detected by trypan blue exclusion method to ensure that the cell viability was above 90%. (2) The cell concentration was adjusted; and 90 μl of cell suspension was added to the 96-well plate.
(§2) 10 μl of drug solution was added to each well in a 96-well plate inoculated with cells, triplicate per concentration.
(§3) End-point for reading: (1) The CTG reagent was thawed and the cell plate was equilibrated to room temperature for 30 minutes. (2) Equal volume of CTG solution was added to each well. (3) The plated was shaken on an orbital shaker for 5 minutes to lyse the cells. (4) The cell plate was placed at room temperature for 20 minutes to stabilize the cold light signal. (5) The cold light value was read.
(§4) GraphPad Prism 7.0 software was used to analyze the data, and nonlinear S-curve regression was fitted the data to get the dose-effect curve, and the IC50 value was calculated therefrom. Cell survival (%)=(Lumtest drug−Lumculture control)/(Lumcell control−Lumculture control)×100%.
A general note: In ATP-based viability assays light output follows the ATP content of the culture.

Data set [2] relates to Ba/F3 LMNA-NTRK1-G595R cell line. Description: Cell experiment, CellTiter-Glo viability, Ba/F3 LMNA-NTRK1-G595R. The conditions noted are these: Mus musculus, BaF3, 72 hours, CTG. The class given is cell-based. Here is the method: as §1, §2, §3, §4
The test system of data set [3] is NIH-3T3ΔTRKA G595R cells. Briefly: Drug Efficacy Test 1: tumor growth in Balb/c Nude mice. The class given is in vivo, mouse. The following applies: subcutaneous NIH-3T3ΔTRKA G595R tumors, start at about 100 mm^3, FIG. 1. Here is the method:
NIH-3T3 ATRKA G595R cells are polyclonal stable transfected cell lines constructed based on TRKA mutation by our laboratory. Balb/c Nude mice, female, 6-8 weeks old, weighing 18-22 grams, were purchased from Chengdu Dashuo Experimental Animal Co., Ltd.
NIH-3T3 ATRKA G595R cells in the logarithmic growth phase were collected, counted and adjusted to a suitable cell density. 0.1 mL cell suspension (2×10^6 cells) was inoculated subcutaneously into the right back of each mouse. When the average tumor volume reached about 100 mm^3, mice were randomly divided into groups (m=6) for administrating the compound of Example 1 in solvent PEG400:HPBCD (20%, W/V) (3:1).
(§5) At the end of the experiment, all surviving experimental animals were sacrificed.
(§6) Tumor volume was calculated using formula: V=0.5 (a×b^2), wherein a and b represent the long and short diameters of the tumor, respectively.
(§7) Graph Pad Prism 6.0 was used for graph analysis.

Data set [4] relates to BA/F3 ETV6-NTRK3 G623R cells. Briefly: Drug Efficacy Test 2: tumor growth in Balb/c Nude mice. The following applies: subcutaneous BA/F3 ETV6-NTRK3 G623R tumors, start at about 100 mm^3, FIG. 2. The class given is in vivo, mouse. Here is the method: BA/F3 ETV6-NTRK3 G623R cells are polyclonal stable transfected cell lines constructed based on TRKA mutation by our laboratory. Balb/c Nude mice, female, 6-8 weeks old, weighing 18-22 grams, were purchased from Chengdu Dashuo Experimental Animal Co., Ltd.
BA/F3 ETV6-NTRK3 G623R cells in logarithmic growth phase were collected, counted and adjusted to a suitable cell density. 0.1 mL cell suspension (2×10^6 cells) was inoculated subcutaneously into the right back of each mouse. When the average tumor volume reached about 100 mm^3, mice were randomly divided into groups (m=5) for administrating the compound of Example 1 in solvent PEG400:HPBCD (20%, W/V) (3:1).
as §5, §6
GraphPadPrism6.0 was used for graph analysis.

Data set [5] has as its system BA/F3 ETV6-NTRK3 G623R cells. Briefly: Drug Efficacy Test 3: tumor growth in SCID mice. The class given is in vivo, mouse. The following applies: subcutaneous BA/F3 ETV6-NTRK3 G623R tumors, start at about 300 mm^3, FIG. 3. How it is done:
BA/F3 ETV6-NTRK3 G623R cells are polyclonal stable transfected cell lines constructed based on TRKA mutation by our laboratory. SCID mice, female, 6-8 weeks old, weighing 18-22 grams, were purchased from Chengdu Dashuo Experimental Animal Co., Ltd.
BA/F3 ETV6-NTRK3 G623R cells in logarithmic growth phase were collected, counted and adjusted to a suitable cell density. 0.1 mL cell suspension (2×10^6 cells) was inoculated subcutaneously into the right back of each mouse. When the average tumor volume reached about 300 mm^3, mice were randomly divided into groups (m=5) for administrating the compound of Example 1 in solvent PEG400:HPBCD (20%, W/V) (3:1).
as §5, §6, §7

In data set [6] the target is T1, TRKA Protein (wild type) (Homo sapiens, UniProt P04629).
T1 construct: purchased abcam ab60887
Briefly: Detection of TRK inhibitory activity (ADP-Glo kinase assay), TRKA wild type. Format: biochemical. The following applies: 35 min at room temperature. Here is the method:
(§8) An enzyme reaction buffer was prepared containing 25 mM MOPS, 5 mM MgCl2, 500 μM DTT and 0.005% Triton, and then adjusted to pH 7.5.
(§9) The test compound was diluted with DMSO to 200 times of the desired final concentration, and mixed evenly, then 3 μL of the solution was pipetted to 117 μL of enzyme reaction buffer and mixed thoroughly. Then, 3 μL of the enzyme reaction buffer containing the test compound was pipetted to a 96-well PCR plate. The positive and negative control wells were filled with 3 μL of enzyme reaction buffer containing 2.5% DMSO, respectively. TRK protein was diluted to 0.4 ng/μL with the enzyme reaction buffer, and 6 μL of diluted TRK protein was added to each well except for the well for the blank control group, in which 6 μL of the enzyme reaction buffer was added. The reaction plate was centrifuged at 1000 rpm/min for 1 minute, and the compound and TRK were pre-incubated at room temperature for 10 minutes. A mixed solution with ATP at a concentration of 160 μM and substrate at a concentration of 1 μM was prepared with the enzyme reaction buffer, and 6 μL of the mixed solution was added to each reaction well. The reaction plate was centrifuged at 1000 rpm/min for 1 minute, and incubated at room temperature for 35 minutes. After the enzyme reaction was completed, 15 μL of ADP-Glo was added to each reaction well. The reaction plate was centrifuged at 1000 rpm/min for 1 minute, and incubated at room temperature for 40 minutes. Then 15 μL of the reaction solution from each well was transferred to a 384-well plate, and then 15 μL of detection substrate was added to each corresponding well of the 384-well plate. The 384-well plate was centrifuged at 1000 rpm/min for 1 minute, and incubated at room temperature for 40 minutes. After the reaction, a microplate reader was used to read the cold luminescence signal value in the 384-well plate.
(§10) The residual viability percentage of each concentration was calculated with the following formula: Residual viability (%)=100*(Lumincompond−Luminblank control)/(Luminpostive control−Luminblank control)
(§11) Then, GraphPad 5.0 was fitted to the effect curve to calculate the IC50 value.
On the technique in general: In ADP-Glo the light output rises with the ADP produced.

The subject of data set [7] is Ba/F3 LMNA-NTRK1-F589L cell line. Description: Cell experiment, CellTiter-Glo viability, Ba/F3 LMNA-NTRK1-F589L. The class given is cell-based. The following applies: Mus musculus, BaF3, 72 hours, CTG. Here is the method:
as §1, §2, §3, §4

Data set [8] has as its target TRKA (G667C) (Homo sapiens, UniProt P04629, G667C). Briefly: Detection of TRK inhibitory activity (ADP-Glo kinase assay), TRKA (G667C). The class given is biochemical. Here is the method: as §8, §9, §10, §11
For data set [9] the following is noted: from C[C@H](CCOc1ccc(F)cc1[C@H]1CCCN1)Nc1c(F)cnc2ccc(Cl)nc12; cn_pd bond; SPhos Pd G3; toluene/tert-butanol; 35.0 mM; 100.0 °C; 16.0 h.

Each structure is given as a SMILES string.

T1 sequence (P04629 33-796): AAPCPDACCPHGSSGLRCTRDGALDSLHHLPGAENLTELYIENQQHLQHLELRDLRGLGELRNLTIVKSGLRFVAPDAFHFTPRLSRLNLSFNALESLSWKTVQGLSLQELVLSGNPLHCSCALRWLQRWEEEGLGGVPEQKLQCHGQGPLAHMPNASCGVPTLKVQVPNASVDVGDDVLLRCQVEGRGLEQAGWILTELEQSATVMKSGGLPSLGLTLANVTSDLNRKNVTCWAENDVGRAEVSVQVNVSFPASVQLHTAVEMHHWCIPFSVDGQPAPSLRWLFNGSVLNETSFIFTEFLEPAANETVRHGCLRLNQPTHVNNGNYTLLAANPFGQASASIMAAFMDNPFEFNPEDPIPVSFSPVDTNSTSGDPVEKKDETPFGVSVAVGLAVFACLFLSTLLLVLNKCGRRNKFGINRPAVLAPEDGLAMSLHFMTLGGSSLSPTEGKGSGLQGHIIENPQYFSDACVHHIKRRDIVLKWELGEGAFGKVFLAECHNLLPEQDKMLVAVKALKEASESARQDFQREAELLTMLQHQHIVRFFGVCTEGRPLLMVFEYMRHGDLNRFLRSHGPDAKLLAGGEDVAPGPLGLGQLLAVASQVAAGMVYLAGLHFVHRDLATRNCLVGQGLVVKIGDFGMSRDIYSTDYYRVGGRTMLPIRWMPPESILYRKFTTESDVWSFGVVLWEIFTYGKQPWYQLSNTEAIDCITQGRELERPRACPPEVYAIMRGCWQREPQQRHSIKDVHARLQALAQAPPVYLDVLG
Sequence of TRKA (G667C) (P04629 33-796 G667C): as the sequence (P04629 33-796) above, with G635C counted along it

On to `C[C@@H]1CCOc2ccc(F)cc2[C@H]2CCCN2c2ccc3ncc(C#N)c(c3n2)N1` [Example 1, (6R,16R)-9-fluoro-16-methyl-3-oxa-2,17,21,25-tetraazapentacyclo [16.6.2.0^2,^6.0^7,^12.0^22,^26]hexacosane-1(25),7,9,11,18(26),19,21,23-octane-19-nitrile], for which the IC50 was 0.0173 µM in data set [1]; 0.0025 µM in data set [2]; less than 0.05 µM in data set [6]; 0.0038 µM in data set [7]; less than 0.05 µM in [8]. For the same compound, the values for the IC90 in [1], in [2] and in data set [7] were 0.0423 µM, 0.0832 µM and 0.0171 µM, respectively. The “Inhibition of tumor growth (tumor volume)” value in data set [3], in data set [4] and in [5] was “inhibits the growth” throughout.
In [9], `C[C@@H]1CCOc2ccc(F)cc2[C@H]2CCCN2c2ccc3ncc(F)c(c3n2)N1` [Example 19, (6R,16R)-9,19-difluoro-16-methyl-13-oxa-2,17,21,25-tetraazapentacyclo[16.6.2.0^2,^6.0^7,^12.0^22,^26]hexacosane-1(25),7,9,11,18(26),19,21,23-octane] returned a ring closure, yield of all isomers of 8.1%. Moreover, the IC50 in data set [6] and in data set [8] was less than 0.05 µM throughout.
For the compound `CN1CCN(c2ccc(C(=O)Nc3n[nH]c4ccc(Cc5cc(F)cc(F)c5)cc34)c(NC3CCOCC3)c2)CC1` [RXDX-101, reference compound], the IC50 in [1] was 0.467 µM; in [2], 1.73 µM; in data set [7], less than 0.001 µM. The IC90 in data set [1] worked out at 0.843 µM; in data set [2], 6.12 µM; in data set [7], 0.0014 µM.

For orientation: IC50 means the concentration that inhibits the measured activity by half. For orientation: IC90 means the point of the concentration-response curve where the effect stands at 90%. A low value points to an effect from little substance.

For the origin of these results see US11584759B2, “Macrocyclic kinase inhibitor” (HITGEN INC., priority 2018, dated 2023).
